Experimental data: patent US20240024274A1, “O-ACETYLSERINE FOR THE USE THEREOF IN THE PREVENTION AND TREATMENT OF GLUCOSE INTOLERANCE AND THE ASSOCIATED DISEASES” (INSTITUT NATIONAL DE RECHERCHE POUR L'AGRICULTURE, …, priority 2020, published 2024)
Entries after “also recorded” stand apart in the source; their conditions may differ.

Assays:
Assay type in all cases: in vivo
C57BL/6JRj mice [1] = assay: Oral glucose tolerance test (OGTT) in healthy mice after 5-day OAS treatment; details: OAS 1000 mg/kg daily for 5 days, vs control group; for area under the curve of the OGTT: glucose 2.5 g/kg oral
Method: Male C57BL/6JRj mice aged 7 weeks from Janvier Labs were fed with a conventional diet used in pet shops. A first group of 10 mice, not treated with OAS, served as a control group. A second group of 10 mice was treated with a daily dose of OAS at 1000 mg/kg for 5 days. The OAS used was the product sold under the name A6262_SIGMA by the company Sigma-Aldrich (CAS No. 66638-22-0). This group is the OAS treatment group. An oral glucose tolerance test (OGTT) was performed on each of the two groups of mice. This test consists of monitoring the plasma glucose concentrations for 120 min, after the mice have received an oral glucose load. Thus, at T0 (fasting blood glucose level), glucose (2.5 g/kg) is given orally to the animal. A drop of blood is taken from the tail every 15 to 30 minutes for 90 minutes to measure the blood glucose level with a strip glucose meter (Accu-Check Perfoma, available in pharmacies). The OGTT was performed on the fifth day of treatment 2 h after the OAS treatment group received a dose of 500 mg/kg. At the time of the OGTT, the mice of the treatment group also received 500 mg/kg of OAS along with the oral glucose load. The control group received only the oral glucose load.

[2] = tested on: C57BL/6JRj mice fed a high fat diet; assay: Oral glucose tolerance test (OGTT) in mice on high fat diet (HFD) treated with OAS
Method: Male C57BL/6JRj mice aged 7 weeks from Janvier Labs were fed a high fat diet (HFD, 45% fat and 20% sucrose) for 12 weeks. […] A first group of 10 mice fed this diet was treated with a daily dose of OAS of 200 mg/kg/d, at a frequency of 5 days per week during the 12 weeks of diet. The OAS used was the product sold as A6262_SIGMA by Sigma-Aldrich (CAS No. 66638-22-0). This group is the HFD+OAS group. […] This is the HFD group. […] An oral glucose tolerance test (OGTT) was performed on each of the three groups of mice. This test consists of monitoring the plasma glucose concentrations for 120 min, after the mice have received an oral glucose load. Thus, at T0 (fasting blood glucose), glucose (2 g/kg) is given orally to the animal. A drop of blood is taken from the tail every 30 minutes for 120 minutes so as to measure the blood glucose level with a strip glucose meter (Accu-Check Perfoma, available in pharmacies). Glucose tolerance is a reflection of the body's ability to regulate the return to a normal blood glucose level after a glucose load. The OGTT was performed at 5 weeks and 9 weeks after the start of the obesogenic diet. The results of this test show the installation of glucose intolerance as early as 5 weeks in the groups of mice on the HFD diet.

C57BL/6JRj mice [3] = assay: Oral glucose tolerance test (OGTT) in healthy mice, single dose of OAS with the glucose load; details: single dose OAS 1000 mg/kg along with glucose 2.5 g/kg oral; vs control group
Method: Male C57BL/6JRj mice aged 7 weeks from Janvier Labs were fed with a conventional diet used in pet shops. A first group of 5 mice, not treated with OAS, served as a control group. A second group of 5 mice was treated with a single dose of OAS at 1000 mg/kg. The OAS used was the product sold under the name A6262 SIGMA by the company Sigma-Aldrich (CAS No. 66638-22-0). This group is the OAS treatment group. An oral glucose tolerance test (OGTT) was performed on each of the two groups of mice. This test consists of monitoring the plasma glucose concentrations for 120 min, after the mice have received an oral glucose load. Thus, at T0 (fasting blood glucose level), glucose (2.5 g/kg) is given orally to the animal. […] In the OGTT test, the OAS treatment group received a dose of 1000 mg/kg of OAS along with the oral glucose load. The control group received only the oral glucose load.

[4] = Epididymal adipose tissue weight of HFD mice after 12 weeks of diet and treatment; details: after 12 weeks of HFD and OAS 200 mg/kg/d, ****p<0.0001
Method: Male C57BL/6JRj mice aged 7 weeks from Janvier Labs were fed a high fat diet (HFD, 45% fat and 20% sucrose) for 12 weeks. […] A first group of 10 mice fed this diet was treated with a daily dose of OAS of 200 mg/kg/d, at a frequency of 5 days per week during the 12 weeks of diet. The OAS used was the product sold as A6262_SIGMA by Sigma-Aldrich (CAS No. 66638-22-0). This group is the HFD+OAS group. […] This is the HFD group. […] These features are indicative of an establishment of obesity in the mice (FIG. 1).

With `CC(=O)OC[C@H](N)C(=O)O` [OAS, O-acetylserine] the “fasting blood glucose level” value (C57BL/6JRj mice [1]; conventional diet) was “tended to be lower; also recorded: decreases”, the “blood glucose levels after the oral glucose load (hyperglycemia induced by an oral glucose load)” value (C57BL/6JRj mice [1]; 15 min, 30 min and 60 min after glucose 2.5 g/kg oral) was “significantly lower; also recorded: significantly decreases; also recorded: significant” and the “area under the curve of the OGTT” value (C57BL/6JRj mice [1]) was “significant”. The “area under the curve of the OGTT” value (C57BL/6JRj mice [1]; listed as O-acetylserine) was “lower than that of the control group”, the “effect on glucose intolerance (OGTT)” value ([2]; HFD mice, OAS 200 mg/kg/d 5 days per week, after 5 weeks) was “no visible effect” and the “glucose intolerance (OGTT)” value ([2]; HFD mice, OAS 200 mg/kg/d 5 days per week, after 9 weeks) was “significantly decreases”. For the same molecule, the “difference in area under the curve of the OGTT between control group and HFD+OAS group” value ([2]; after 5 weeks, ****p<0.0001) was “significant”, the “difference in area under the curve of the OGTT between HFD group and HFD+OAS group” value ([2]; after 9 weeks, *p<0.05) was “significant” and the “difference in plasma glucose concentration between control group and HFD+OAS group” value ([2]; after 9 weeks, from t=60 min after oral glucose load) was “no longer significant”. The “difference in plasma glucose concentration between HFD group and HFD+OAS group” value ([2]; after 9 weeks, t=30 min after oral glucose load, p<0.0001) was “significant”, the “area under the curve of the OGTT” value (C57BL/6JRj mice [3]) was “lower area under the curve than the control group; also recorded: significant” and the “blood glucose levels at 15 min after the oral glucose load” value (C57BL/6JRj mice [3]) was “significantly lower; also recorded: significantly decreases”. The “difference in epididymal adipose tissue weight between control group and HFD+OAS group” value [4] was “statistically significant”.
